These results are taken from patent US8067394B2, “Synthesis and biological activities of new tricyclic-bis-enones (TBEs)” (Trustees of Dartmouth College, priority 2006, dated 2011).

In assay [1] the test system is NO production in RAW cells. Kind of assay: Inhibition of NO production in RAW cells stimulated with interferon-γ. Format: cell-based, mouse. To be noted: for IC50: read-out: IC50 (nM), NO production in RAW cells.
Assay [2] has as its system MCF-7 mouse breast cancer cell lines. To be noted: Honda et al., 2003; cited from earlier work.
In assay [3] the test system is NO production in primary mouse macrophages. To be noted: cited from earlier work; for IC50: Table 1, stimulated with interferon-γ, compounds racemic.
A further assay deals with HO-1. Put plainly: Induction of HO-1 in RAW cells (Western blot). The following applies: FIG. 9; 30-300 nM, 24 hours. The assay is classed as cell-based, mouse. For orientation: A western blot detects proteins with antibodies after separation by electrophoresis.
In a further assay the test system is heme oxygenase-1. Kind of assay: Induction of heme oxygenase-1 in liver of CD-1 mice after gavage. To be noted: FIG. 3; CD-1 mice, gavage in DMSO, livers after 6 h. The assay is classed as in vivo. Here is the method:
FIG. 3. […] CD-1 mice (2 per group) were gavaged with TBEs or CDDO-Im in DMSO. After 6 h, livers were harvested and homogenized. Lysates were separated by SDS-PAGE, probed with HO-1 antibodies, and developed by ECL.
FIG. 11. […] Male CD-1 mice (3 per group) were gavaged with 1 μmol TBEs, CDDO or CDDO-Im in DMSO. Six hours later, livers were harvested and homogenized. Lysates were separated by SDS-PAGE, probed with HO-1 antibodies, and developed by ECL.
CD-1 mice (2 per group) were gavaged with TBEs or CDDO-Im in DMSO. After 6 h, livers were harvested and homogenized. Lysates were separated by SDS-PAGE, probed with HO-1 antibodies, and developed by ECL.

The subject of the next assay is iNOS. Kind of assay: Inhibition of iNOS induction in RAW cells stimulated with IFN-γ (Western blot). Format: cell-based, mouse. The following applies: FIG. 10; 30-300 nM, IFNγ 10 ng/ml, 24 hours.
For assay [4], the system named is NO production in RAW cells. To be noted: Honda et al., 2000, 2002; cited from earlier work.
Where [5] appears, read: Mus musculus, Table 6, optically active TBE-31 and 34, stimulated with interferon-7.
Setting [6] is: Mus musculus, Table 5, C-8a functionalized TBE-9 analogs, stimulated with interferon-γ.

“Also recorded” adds a separate entry of the source. Read-outs that look alike come from different tables or passages of the source.

On to `CC1(C)C(=O)C(C#N)=CC2(C)C3=CC(=O)C(C#N)=CC3(C#C[Si](C)(C)C)CCC12` (single isomer, unassigned; (-)) [(−)-TBE-34], for which, in assay [1] (Table 6, optically active TBE-31 and 34, stimulated with interferon-7), the half-maximal inhibitory concentration (IC50) (in general, the midpoint of a concentration-inhibition curve) was 3 nM.
As to `C#C[C@@]12C=C(C#N)C(=O)C=C1[C@@]1(C)C=C(C#N)C(=O)C(C)(C)[C@H]1CC2` [(+)-TBE-31, (+)-(4bS,8aS,10aR)-10a-ethynyl-4b,8,8-trimethyl-3,7-dioxo-3,4b,7,8,8a,9,10,10a-octahydrophenanthrene-2,6-dicarbonitrile], the IC50 in assay [1] (setting [5]) was found to be 1 nM.
On to `CC1(C)C(=O)C(C#N)=C[C@]2(C)C3=CC(=O)C(C#N)=C[C@]3(C)CC[C@@H]12` [(−)-TBE-9], for which the “Activity against MCF-7 mouse breast cancer cell lines” value in assay [2] is “active”.
On to `C#C[C@]12C=C(C#N)C(=O)C=C1[C@@]1(C)C=C(C#N)C(=O)C(C)(C)[C@@H]1CC2` [(−)-TBE-31], for which the IC50 in assay [1] (setting [5]) was found to be 3 nM.
For `CC1(C)CC[C@]2(C(=O)O)CC[C@]3(C)[C@H](C(=O)C=C4[C@@]5(C)C=C(C#N)C(=O)C(C)(C)[C@@H]5CC[C@]43C)[C@@H]2C1` [CDDO, 2-cyano-3,12-dioxooleana-1,9(11)-dien-28-oic acid, reference compound], the IC50 in assay [3] was 0.5 nM; in assay [1] (Table 4, C-8a functionalized TBE-10 analogs, stimulated with interferon-γ), 6 nM; in assay [1] (Table 5, C-8a functionalized TBE-9 analogs, stimulated with interferon-γ), 20 nM.
`CC1(C)CC[C@]2(C(=O)n3ccnc3)CC[C@]3(C)[C@H](C(=O)C=C4[C@@]5(C)C=C(C#N)C(=O)C(C)(C)[C@@H]5CC[C@]43C)[C@@H]2C1` [CDDO-Im, 1-[2-cyano-3-,12-dioxooleana-1,9(11)-dien-28-oyl]imidazole, reference compound]: in the assay with HO-1, the “Induction of HO-1 in RAW cells” value was “most potent compound amongst semi-synthetic triterpenoid analogues in this assay”. Moreover, the “Induction of heme oxygenase-1 in liver in vivo” value in the assay on heme oxygenase-1 is reported as “very potent triterpenoid agent for induction of heme oxygenase-1”.
Consider `CC1(C)CC[C@]2(C(=O)O)CC[C@]3(C)C(=CC[C@@H]4[C@@]5(C)CC[C@H](O)C(C)(C)[C@@H]5CC[C@]43C)[C@@H]2C1` [Oleanolic acid, reference compound], for which, in assay [3], the IC50 is over 40000 nM.
In the case of `CC(=O)O[C@@H]1CCC=C2[C@@]3(C)C=C(C#N)C(=O)C(C)(C)[C@@H]3CC[C@]21C` [TBE-2], in assay [3], the 50% inhibitory concentration (IC50) was 480 nM.
On to `CC(=O)O[C@@H]1CC(=O)C=C2[C@@]3(C)C=C(C#N)C(=O)C(C)(C)[C@@H]3CC[C@]21C` [TBE-3], for which, in assay [3], the IC50 was 53 nM.
On to `CC1(C)C(=O)C(C#N)=C[C@]2(C)C3=CC(=O)C[C@@H](O)[C@]3(C)CC[C@@H]12` [TBE-4], for which the concentration for half-maximal inhibition (IC50) in assay [3] was 75 nM.
Regarding `CC1(C)C(=O)C(C#N)=C[C@]2(C)C3=CC(=O)C=C[C@]3(C)CC[C@@H]12` [TBE-5], the IC50 in assay [3] was 61 nM.
In the case of `CC1(C)C(=O)C(C#N)=CC2(C)C3=CC(=O)C(C#N)=CC3(C#C[Si](C)(C)C)CCC12` (stereo not shown) [TBE-34], in the assay on HO-1, the “Induction of HO-1 in RAW cells” value is given as “nearly equivalent in potency to TBE-31”. Also, the “Inhibition of induction of iNOS in RAW cells stimulated with IFNγ” value in the assay with iNOS is recorded as “nearly equivalent in potency to TBE-31; also recorded: nearly equivalent in potency to both compounds”. In addition, the “Potency for inhibition of NO production in RAW cells (in words)” value in assay [1] is given as “nearly equivalent potency to that of TBE-31”. Besides, the IC50 in assay [1] (Mus musculus) was 3 nM.
In the case of `CC#CC12C=C(C#N)C(=O)C=C1C1(C)C=C(C#N)C(=O)C(C)(C)C1CC2` (stereo not shown) [TBE-35], the IC50 in assay [1] (setting [6]) is 5 nM.
With `CCC#CC12C=C(C#N)C(=O)C=C1C1(C)C=C(C#N)C(=O)C(C)(C)C1CC2` (stereo not shown) [TBE-36], the IC50 in assay [1] (setting [6]) was determined as 20 nM.
On to `CC1(C)C(=O)C(C#N)=CC2(C)C3=CC(=O)C(C#N)=CC3(C#CC#N)CCC12` (stereo not shown) [TBE-38], for which the IC50 in assay [1] (setting [6]) came out at 4 nM.
Consider `C#CC#CC12C=C(C#N)C(=O)C=C1C1(C)C=C(C#N)C(=O)C(C)(C)C1CC2` (stereo not shown) [TBE-39], for which, in assay [1] (setting [6]), the IC50 worked out at 3 nM. In assay [1] (RAW cells, interferon-γ), the “Potency for inhibition of NO production in RAW cells (in words)” value is on record as “nearly equivalent potency to that of TBE-31”.
As to `COC(=O)[C@]12CCC(C)(C)C[C@H]1C1C(=O)C=C3[C@@]4(C)C=C(C(=O)O)C(=O)C(C)(C)[C@@H]4CC[C@@]3(C)[C@]1(C)CC2` (stereo partly shown) [TP-190, reference compound], the “Inhibition of NO production in mouse macrophages (in words)” value in assay [3] (Honda et al., 2000, 2002) was “potent inhibitors of NO production”. In assay [4], the “Inhibition of NO production in RAW cells (in words)” value is recorded as “potent inhibitors of NO production”.
With `CC1(C)CC[C@]2(C#N)CC[C@]3(C)[C@H](C(=O)C=C4[C@@]5(C)C=C(C#N)C(=O)C(C)(C)[C@@H]5CC[C@]43C)[C@@H]2C1` [TP-225, reference compound], in assay [1] (setting [6]), the half-maximal inhibitory concentration (IC50) stood at 1 nM.
As for `C[C@]12CCC(=O)C=C1CC[C@@H]1[C@@H]2[C@@H](O)C[C@@]2(C)[C@H]1CC[C@]2(O)C(=O)CO` [hydrocortisone, reference compound], the IC50 in assay [3] was 10 nM; in assay [1] (Mus musculus, Table 4, C-8a functionalized TBE-10 analogs, stimulated with interferon-γ), 61 nM.
